Assay results taken from patent publication US11596668B2, “Tissue repair” (THE UNIVERSITY OF SUSSEX, priority 2017, dated 2023).

Key:
[1] = system: rat aortic smooth muscle cells; test: Proliferation assay, smooth muscle cells; assay type: cell-based; conditions: 0-200 μM, 24 h
Protocol: (§1) Proliferation assay: Proliferation of rat aortic endothelial cells (RAECs) and rat aortic smooth muscle cells (isolated from rats at animal unit at Sussex University) was evaluated using Trypan Blue exclusion test. Cells were seeded in 96 well plates at a seeding density of 1×10^4 cells/mL (0.15 mL/well). After 24 h, cells where treated with or without different concentrations of 2 HIF-1 inducers; DMOG and BIQ (0-200 μM). After another 24 hours, Trypan Blue was added and the cells that were stained (dead) and unstained (live) were counted. Results were expressed as number of cells/mL.

[2] = system: rat aortic endothelial cells (RAECs); test: Proliferation assay, endothelial cells; assay type: cell-based; conditions: 24 h; for proliferation of rat aortic endothelial cells: 100 μM (0.1 mM); for optimum concentration for enhancing proliferation of rat aortic endothelial cells: tested 0-200 μM
Protocol: as §1

[3] = system: vascular endothelial growth factor (VEGF); test: VEGF gene expression in carotid artery by qPCR after local application; assay type: in vivo, Sprague Dawley rats; conditions: 24 h
Protocol: (§2) Male animal study: Sprague Dawley rats (450 g) were used in this study. Animals were anesthetized using 2% isoflurane where the rats were placed in a supine position. The right carotid artery was exposed and DMOG was applied locally at different concentrations (0-7.5 mg/Kg) on the artery using pluronic gel (30% w/w). 3 rats were used in each concentration group.
Real time qPCR: RNA was extracted and purified from the frozen artery sections using TRIzol (Invitrogen, Life Technologies). RNA quality and concentrations were determined using a NanoDrop ND-1000 (NanoDrop Technologies). Reverse transcription and real-time quantitative PCR (qPCR) were carried out on RNA samples for VEGF and β2-microglobulin as described in example 2.

[4] = system: vascular endothelial growth factor (VEGF); test: VEGF gene expression by real time qPCR in RAECs; assay type: cell-based, rat; conditions: 100 μM, 18 h, 21% O2; reaches level similar to cells at 1% oxygen
Protocol: (§3) Cell culture: Rat aortic endothelial cells (RAECs) were seeded into 24-well plates and cultured until ˜80% confluent after which they were incubated with or without DMOG for 18 h at normal oxygen levels (21% O2). Cells incubated at 1% O2 where used as a positive control for HIF-1.
Real time qPCR: The gene expression of vascular endothelial growth factor (VEGF), a HIF-1 target gene, was analysed by quantitative polymerase chain reaction (qPCR). Cells were lysed using TRIzol (Invitrogen, Life Technologies) and RNA was then extracted and purified. RNA quality and concentration were determined using a NanoDrop ND-1000 (NanoDrop Technologies). Reverse transcription and real-time quantitative PCR (qPCR) were carried out on RNA samples for VEGF and β2-microglobulin (a housekeeping gene not affected by change in oxygen levels), using TaqMan gene expression assays (Applied Biosystems/Life Technologies). For gene expression quantification, the comparative threshold cycle (ΔΔCT) method was used following manufacturer's guide-lines. Results were normalized to β2-microglobulin expression and expressed as arbitrary units using one of the normoxic untreated samples as a calibrator. […]

human fibroblasts = test: Scratch assay, skin injury model, fibroblasts; assay type: cell-based; conditions: agent alone (DMOG 100 μM or EPO 1 ng/ml), 3% serum, 21% oxygen, vs untreated cells
Protocol: (§4) An in vitro injury model using cells relevant to wound injury were used. Two different cell lines; human keratinocytes (HaCaT) and human fibroblasts were used as skin injury models.
(§5) Scratch assay: As described in example 3, the reparative effect of EPO (1 ng/mL) and DMOG (100 uM) were tested alone or in combination on HaCaT and fibroblasts incubated in cell culture medium (Dulbeccos cell culture medium) containing 3% serum in 21% oxygen for 24 h.

HIF-1 [5] = test: HIF-1 protein levels in cell lysates by ELISA; assay type: cell-based, rat; conditions: 100 μM, 18 h, 21% O2; reaches level similar to cells at 1% oxygen
Protocol: as §3
Enzyme linked immunosorbent assay (ELISA): HIF-1 protein levels were measured using ELISA. Treated cells were lysed in 80 μL lysis buffer (25 mmol/L Tris HCl pH 7. 6, 0.1% SDS, deoxycholate, 1% NP40, 0.5 mol/L EDTA, 40 mmol/L EGTA and protease inhibitors). Lysates were then centrifuged at 11,000 g for 15 min at 4° C. and the supernatant was collected. Protein concentrations were quantified using a BCA reagent kit (Pierce Biotechnology). HIF was measured using an ELISA kit (R&D systems and biotechne, UK) and expressed as pg/mg protein.
Similar to the methods described in example 2, HIF-1 protein expression and VEGF gene expression were quantitatively measured in vitro using ELISA and real time qPCR respectively using different the different HIF-1 inducers at different concentrations (0-500 uM).

HIF-1 [6] = test: HIF-1 in plasma by ELISA after local application on carotid artery; assay type: in vivo, Sprague Dawley rats; conditions: 24 h
Protocol: as §2
ELISA: After 24 h, blood was taken from the rat's tail in tubes containing EDTA as an anti-coagulant. Blood was kept on ice and centrifuged to separate the plasma which was immediately treated with a protease inhibitor. HIF-1 was quantified in the collected plasma using the ELISA assay as described in example 2. After 24 h, treated animals were culled and both the right (treated) and left (untreated) carotid arteries were isolated and snap frozen for further analysis.

rat carotid artery = test: Balloon catheter injury (angioplasty) model, endothelial regrowth by Evan's blue staining; assay type: in vivo, Sprague Dawley rats; conditions: DMOG 5 mg/Kg alone, local hydrogel, 5 days after injury
Excerpt: (§6) Angioplasty model: Balloon catheter injury (angioplasty) was the model used as an in vivo injury model using Sprague Dawley rats (450 g). Animals were anesthetized using 2% isoflurane where the rats were placed in a supine position. The right carotid artery was exposed and a (2F Fogarty catheter) was used to cause injury. The catheter was inserted into the common carotid artery via the external carotid to cause complete removal of the vascular endothelium from the common carotid artery down to its junction with the aortic arch. DMOG (5 mg/Kg) and EPO (100 ug/Kg) were administered either alone or in combination in the form of a hydrogel (30% w/v pluronic F127 gel) and applied to the artery after injury. Endothelial regrowth was then assessed using Evan's blue staining (injected IV in the tail vein 30 min before culling the animal) 0 and 5 days after injury to assess the area of de-endothelialised surface; re-endothelialised regions remain unstained. Images of stained arteries were quantified using Image J software.

[7] = system: human keratinocytes (HaCaT); test: Scratch assay, skin injury model, keratinocytes; assay type: cell-based; conditions: agent alone (DMOG 100 μM or EPO 1 ng/ml), 3% serum, 21% oxygen, vs untreated cells
Protocol: as §4, §5

HIF-1 [8] = test: HIF-1 in plasma by ELISA post balloon injury; assay type: in vivo, Sprague Dawley rats; conditions: DMOG 5 mg/Kg local hydrogel, 24 h post injury
Excerpt: as §6
ELISA: Blood was collected from venous tail at 0, 1 and 5 days post injury. Plasma was separated and used for quantitative measurement of HIF-1 using ELISA method as described earlier.

[9] = system: rat aortic endothelial cells (RAECs); test: Scratch assay (in vitro injury model), wound closure; assay type: cell-based; conditions: HIF-1 inducer 100 μM alone, 21% oxygen, 5% serum, vs untreated cells
Protocol: Scratch assay: This assay was used as an in vitro model of injury in rat aortic endothelial cells (RAECs). The effect of EPO on wound closure was investigated in either 21% or 1% O2. A reproducible scratch was produced in the endothelial monolayer and thereafter, either EPO (1 ng/mL) or saline (control) was added to the cells (in rat endothelial growth medium containing 5% serum) and subsequently incubated in 21% or 1% O2 for 24 hours. The defined area of the scratch was photographed under an inverted microscope (Olympus CKX41; Olympus Corporation, Tokyo, Japan) at lox magnification using a Micropix 5 megapixel colour complementary metal-oxide semiconductor digital camera (Olympus Cooperation). The position of the wound image was standardized each time against a horizontal line drawn on the base of the plate passing through the centre of each well. The scratch area was quantified using ImageJ software (National institutes of Health, Bethesda, Md., USA).
Scratch assay: Scratch assay was used as described in example 1. Cells where treated with DMOG (100 μM) and/or EPO (at 1 ng/mL). Cells incubated with medium containing 10% serum where used as positive control to reflect the maximum wound closure the cells could attain after 24 h. […]

[10] = 0-7.5 mg/Kg applied locally on carotid artery in pluronic gel
[11] = local application on carotid artery

O=C(O)CNC(=O)c1nc(Cl)c2ccccc2c1O [BIQ, N-[(1-Chloro-4-hydroxy-3-isoquinolinyl)carbonyl]glycine] was tested, and the “proliferation of smooth muscle cells” value [1] was “no effect”, the “proliferation of rat aortic endothelial cells” value [2] was “enhanced” and the “optimum concentration for enhancing proliferation of rat aortic endothelial cells” value [2] was 100 µM.

For COC(=O)CNC(=O)C(=O)OC [DMOG, dimethyloxalylglycine], the “gene expression of VEGF in carotid artery” value [3, 10] was “concentration dependent effect”, the “optimal dose to cause an increase in VEGF” value [3, 11] was 5 mg/kg and the “gene expression of VEGF” value [4] was “increase”. For the same molecule, the “% wound closure after 24 h” value (human fibroblasts) was “no significant different”, the “proliferation of smooth muscle cells” value [1] was “no effect” and the “HIF levels in cell lysates” value (HIF-1 [5]) was “increase”. The “HIF levels in plasma” value (HIF-1 [6]; [10]) was “concentration dependent effect”, the “optimal dose to cause an increase in HIF-1” value (HIF-1 [6]; [11]) was 5 mg/kg and the “proliferation of rat aortic endothelial cells” value [2] was “enhanced”. The “optimum concentration for enhancing proliferation of rat aortic endothelial cells” value [2] was 100 µM, the “repair of the endothelial lining of rat carotid artery” value (rat carotid artery) was “significant effect” and the “% wound closure after 24 h” value [7] was “no significant different”. For the same molecule, the “HIF-1 levels in rat plasma” value (HIF-1 [8]) was “significantly increased”.

For O=C(O)CNC(=O)c1c(O)c2ccccc2n(Cc2ccccc2)c1=O [IOX, N-[[1,2-Dihydro-4-hydroxy-2-oxo-1-(phenylmethyl)-3-quinolinyl]carbonyl]glycine], the “% wound closure after 24 h” value [9] was “no change”.
